{
  "source": "patent US12404244B2",
  "about": "“Pan-KIT kinase inhibitor having quinoline structure and application thereof” (Tarapeutics Science Inc., priority 2018, dated 2025)",
  "format_in_all_cases": "cell-based",
  "key": {"TEL-KIT/S709F-BaF3": {"system": "TEL-KIT/S709F-BaF3", "test": "Proliferation of TEL-KIT/S709F-BaF3 cells (CCK-8)", "conditions": "Mus musculus, 72 h, read-out: GI50 TEL-KIT/S709F-BaF3", "from_the_text": "(§1) Compounds as provided herein were further evaluated for their inhibitory effects on proliferation of cancer cells by testing their effects on growth of cancer cells. In this example the following cells were used: primary mouse B cells BaF3 (purchased from ATCC), GIST-T1 cells of the human gastrointestinal stromal tumor cell line (expressing wild-type KIT gene) (purchased from Cosmo Bio Co., Ltd. (Japan)). The present lab further constructed and used the following: mouse Tel-Kit-BaF3 (stably expressing KIT wild-type kinase), mouse Tel-Kit/T670I-BaF3 (stably expressing KIT T670I mutant kinase), mouse Tel-Kit/V559A-BaF3 (stably expressing KIT V559A mutant kinase), mouse Tel-Kit/V559D-BaF3 (stably expressing KIT V559D mutant kinase), mouse Tel-Kit/V559G-BaF3 (stably expressing KIT V559G mutant kinase), mouse Tel-Kit/V560D-BaF3 (stably expressing KIT V560D mutant kinase), mouse Tel-Kit/L576P-BaF3 (stably expressing KIT L576P mutant kinase), mouse Tel-Kit/V654A-BaF3 (stably expressing KIT V654A mutant kinase), mouse Tel-Kit/V654A/V559D-BaF3 (stably expressing KIT V654A V559D mutant kinase), mouse Tel-Kit/T670E-BaF3 (stably expressing KIT T670E mutant kinase), mouse Tel-Kit/T670I/V559D-BaF3 (stably expressing KIT T670I V559D mutant kinase), mouse Tel-Kit/S709F-BaF3 (stably expressing KIT S709F mutant kinase), mouse Tel-Kit/D816E-BaF3 (stably expressing KIT D816E mutant kinase), mouse Tel-Kit/D816H-BaF3 (stably expressing KIT D816H mutant kinase), mouse Tel-Kit/D820E-BaF3 (stably expressing KIT D820E mutant kinase), mouse Tel-Kit/D820G-BaF3 (stably expressing KIT D820G mutant kinase), mouse Tel-Kit/D820Y-BaF3 (stably expressing KIT D820Y mutant kinase), mouse Tel-Kit/N822K-BaF3 (stably expressing KIT N822K mutant kinase), mouse Tel-Kit/Y823D-BaF3 (stably expressing KIT Y823D mutant kinase), mouse Tel-Kit/A829P-BaF3 (stably expressing KIT A829P mutant kinase), GIST-T1-T670I cells of the human gastrointestinal stromal tumor cell line (expressing KIT-T670I mutant gene). The above cell lines were constructed by: amplifying respectively the sequences of human KIT and various mutant kinase regions of KIT via PCR, inserting the fragments respectively into MSCV-Puro vectors having a N-terminal TEL fragment and/or a NPM fragment and/or a TPR fragment (purchased from Clontech), transfecting mouse BaF3 cells with the vectors by means of retrovirus to obtain stably transfected cells, removing the growth factor IL-3, and thereby eventually obtaining cell lines that depend on the transferred protein KIT or various mutants of KIT. […]"}, "TEL-KIT/D816E-BaF3": {"system": "TEL-KIT/D816E-BaF3", "test": "Proliferation of TEL-KIT/D816E-BaF3 cells (CCK-8)", "conditions": "Mus musculus, 72 h, read-out: GI50 TEL-KIT/D816E-BaF3", "from_the_text": "as §1"}, "TEL-KIT/D816H-BaF3": {"system": "TEL-KIT/D816H-BaF3", "test": "Proliferation of TEL-KIT/D816H-BaF3 cells (CCK-8)", "conditions": "Mus musculus, 72 h, read-out: GI50 TEL-KIT/D816H-BaF3", "from_the_text": "as §1"}, "TEL-KIT/D820E-BaF3": {"system": "TEL-KIT/D820E-BaF3", "test": "Proliferation of TEL-KIT/D820E-BaF3 cells (CCK-8)", "conditions": "Mus musculus, 72 h, read-out: GI50 TEL-KIT/D820E-BaF3", "from_the_text": "as §1"}, "TEL-KIT/A829P-BaF3": {"system": "TEL-KIT/A829P-BaF3", "test": "Proliferation of TEL-KIT/A829P-BaF3 cells (CCK-8)", "conditions": "Mus musculus, 72 h, read-out: GI50 TEL-KIT/A829P-BaF3", "from_the_text": "as §1"}, "GIST-T1": {"system": "GIST-T1", "test": "Proliferation of GIST-T1 cells (CCK-8)", "conditions": "Homo sapiens, GISTT1, 72 h, read-out: GI50 GIST-T1", "from_the_text": "as §1, with “gene).” for “gene). The above cell lines were constructed by: amplifying respectively the sequences of human KIT and various mutant kinase regions of KIT via PCR, inserting the fragments respectively into MSCV-Puro vectors having a N-terminal TEL fragment and/or a NPM fragment and/or a TPR fragment (purchased from Clontech), transfecting mouse BaF3 cells with the vectors by means of retrovirus to obtain stably transfected cells, removing the growth factor IL-3, and thereby eventually obtaining cell lines that depend on the transferred protein KIT or various mutants of KIT.”\n(§2) The cells after incubation were detected using CCK-8 (purchased from MedChem Express, Shanghai, China) cell viability assay kit (CCK-8 may be reduced by dehydrogenase in living cells to a highly water-soluble yellow formazan product, and the amount of the resultant formazan is proportional to the number of living cells), the number of living cells were quantified with a microplate reader, and GI50 of the compounds and the control compounds were calculated (the results shown in Table 2 and Table 3)."}, "GIST-T1/T670I": {"system": "GIST-T1/T670I", "test": "Proliferation of GIST-T1/T670I cells (CCK-8)", "conditions": "Homo sapiens, GISTT1, 72 h, read-out: GI50 GIST-T1/T670I", "from_the_text": "as §1, with “gene).” for “gene). The above cell lines were constructed by: amplifying respectively the sequences of human KIT and various mutant kinase regions of KIT via PCR, inserting the fragments respectively into MSCV-Puro vectors having a N-terminal TEL fragment and/or a NPM fragment and/or a TPR fragment (purchased from Clontech), transfecting mouse BaF3 cells with the vectors by means of retrovirus to obtain stably transfected cells, removing the growth factor IL-3, and thereby eventually obtaining cell lines that depend on the transferred protein KIT or various mutants of KIT.”\nas §2"}},
  "data": [
    {"molecule": "COc1cc2nccc(Oc3ccc(NC(=O)Cc4ccc(C)c(C(F)(F)F)c4)cc3)c2cc1OC", "note": "[Example 1, N-(4-((6,7-dimethoxyquinolin-4-yl)oxy)phenyl)-2-(4-methyl-3-(trifluoromethyl)phenyl)acetamide]", "values": [
      {"measurement": "GI50", "setting": "TEL-KIT/S709F-BaF3", "value": 11, "unit": "nM"},
      {"measurement": "GI50", "setting": "TEL-KIT/D816E-BaF3", "value": 9, "unit": "nM"},
      {"measurement": "GI50", "setting": "TEL-KIT/D816H-BaF3", "value": 58, "unit": "nM"},
      {"measurement": "GI50", "setting": "TEL-KIT/D820E-BaF3", "value": 5, "unit": "nM"},
      {"measurement": "GI50", "setting": "TEL-KIT/A829P-BaF3", "value": 8, "unit": "nM"},
      {"measurement": "GI50", "setting": "GIST-T1", "value": 5, "unit": "nM"},
      {"measurement": "GI50", "setting": "GIST-T1/T670I", "value": 16, "unit": "nM"}
    ]}
  ]
}
